Assay results reported in patent EP4772500A1, “NOVEL ISOXAZOLE COMPOUND AS TM4SF5-SPECIFIC INHIBITOR AND USE THEREOF” (Seoul National University R&DB Foundation, priority 2023, dated 2025).

Tests used:
SNU449-TM4SF5 cells [1] = assay: Cell migration tracking, TM4SF5-expressing cells; assay type: cell-based, human; details: SNU449-TM4SF5, 2.5, 5.0, or 10.0 µM, 17 hours (FIG. 7)
Procedure: SNU449-TM4SF5 cells, which were made to express TM4SF5 using a lentivirus in human hepatocellular carcinoma cells SNU449, and SNU449-EV cells, into which a control vector (empty vector, EV) was injected so that TM4SF5 is not expressed, were seeded to a density of 40% in 8-chamber plates (Thermo) coated with 10 µg/ml collagen type 1 (Advanced Biomatrix). Three hours after seeding in a cell culture environment containing 10% FBS (GenDEPOT), DMSO and drugs were treated in the culture medium at the indicated concentrations. After treating with the drugs, the positions of the same moving cells were repeatedly photographed using a microscope every 20 minutes for 17 hours. The cells were photographed using an IX81-ZDC microscope (Olympus) equipped with a UPLSAPO 10X2, NA0.4 Super Apochromatic objective lens (Olympus). While photographing the cells, a general cell culture environment was created by constantly injecting 5% CO2 at a rate of 40-60 mL/min at 37°C using a controller (Live Cell Instrument). The migration distance and path of the cells were calculated using the "Track Object" application of MetaMorph software (Molecular Devices LLC). […]

SNU449-TM4SF5 cells [2] = assay: qRT-PCR of cytokines/chemokines, fibrosis and T/NK cell related factors; assay type: cell-based, human; details: 2.5 µM, 24 hours, SNU449-TM4SF5 (FIG. 8e-g)
Procedure: After disrupting cells or tissues using Qiazol (Qiagen, USA), chloroform was added thereto, and centrifugation was performed at 12,000x g and 4°C for 15 minutes for phase separation, followed by separating the upper […] layer. After adding isopropanol to the separated […] layer to precipitate RNA, it was washed with 70% ethanol. An RNA pellet was separated by centrifugation at 7,500x g for 5 minutes, and ethanol was evaporated for 10 minutes, followed by solubilization in 30 µl of DEPC-water. The solubilized RNA was reverse-transcribed using a reverse transcription kit (Toyobo, Japan) after removing gDNA to obtain cDNA. For the obtained cDNA, expression was measured by real-time PCR (Bio-Rad, USA) using 2x Eva green master mix (Labopass, Republic of Korea) and 0.4 µM forward/reverse primers. The expression level was calculated using Pfaffl's modified delta-delta Ct method.
Normal 22-week-old C57BL/6 mice were randomly divided into a normal chow diet (NCD) group and a Methionine-Choline Deficient (MCD) diet group, which is a non-alcoholic steatohepatitis (NASH) induction diet, with 3 to 6 mice per group, and were allowed free access to the diets for 4 weeks. Simultaneously, vehicle (DMSO) or ST-2-001 at a concentration of 5 mg/kg was treated twice a week per animal via intraperitoneal injection (IP). […]

COc1ccc(-c2cc(-c3ccc(NC(C)=O)cc3)no2)cc1 [ST-2-001, N-(4-(5-(4-methoxyphenyl)isoxazole-3-yl)phenyl)acetamide]
migration of the cells (SNU449-TM4SF5 cells [1]): decreased according to the treatment with ST-2-001 in a concentration-dependent manner
mRNA levels of inflammation-related cytokines/chemokines, liver fibrosis factors, and factors related to T cell or NK cell natural killer activation (SNU449-TM4SF5 cells [2]): inhibited
